From patent publication US20240384268A1, “Oligonucleotides” (Hudson Institute of Medical Research, priority 2021, published 2024)
In the oligonucleotide strings, read from the 5' end, every base follows the letter of its sugar. An asterisk marks phosphorothioate; unmarked linkages are phosphodiester. Other units and linkages are bracketed, terminal groups are in braces. A string of capitals states the bases alone. d = 2'-deoxy (DNA); m = 2'-O-methyl

The substances below were run against cGAS (Homo sapiens, UniProt Q8N884) (assay: ISD70-driven IP-10 (and IFN-β) production in THP-1 cells, ELISA). Conditions: ASO 100 nM; relative to ISD70 only, given as fraction.
cGAS, sequence (Q8N884 whole entry): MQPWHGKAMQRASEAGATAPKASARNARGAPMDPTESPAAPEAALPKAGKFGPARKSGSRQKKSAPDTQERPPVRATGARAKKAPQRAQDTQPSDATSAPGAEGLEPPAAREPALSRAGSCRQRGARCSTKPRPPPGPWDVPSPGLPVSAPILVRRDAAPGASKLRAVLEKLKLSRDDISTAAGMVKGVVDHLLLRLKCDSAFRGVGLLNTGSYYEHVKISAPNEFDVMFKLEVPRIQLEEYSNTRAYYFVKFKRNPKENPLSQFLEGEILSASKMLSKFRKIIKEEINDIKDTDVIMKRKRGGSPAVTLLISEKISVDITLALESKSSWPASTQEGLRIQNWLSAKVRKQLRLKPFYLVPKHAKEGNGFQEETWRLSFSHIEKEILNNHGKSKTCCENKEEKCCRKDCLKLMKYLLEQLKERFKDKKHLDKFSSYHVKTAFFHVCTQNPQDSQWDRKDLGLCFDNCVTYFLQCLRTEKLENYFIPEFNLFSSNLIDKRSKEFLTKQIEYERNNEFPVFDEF
Type: cell-based
Set-up: endogenous in cells; host or cells: THP-1 (undifferentiated)
“CCACTTGGCAGACCAT (antisense; LNA-modified, pattern not given here) [CTNN2B-1575 LNA V1]” was tested, and the “cGAS 100 nM (averaged IP-10 level relative to ISD70 condition)” value was 0.532. “CCAGCAGGTCAGCAAA (antisense; LNA-modified, pattern not given here) [HPRT LNA-388 KL]” was tested, and the “cGAS 100 nM (averaged IP-10 level relative to ISD70 condition)” value was 0.552. With “CCTTGCACGTGGCTTC (antisense; LNA-modified, pattern not given here) [EGFR-1013 LNA V1]” the “cGAS 100 nM (averaged IP-10 level relative to ISD70 condition)” value was 0.559. For “CGCTTTTCTGTCTGGT (antisense; LNA-modified, pattern not given here) [CTNN2B-311 LNA KL]”, the “cGAS 100 nM (averaged IP-10 level relative to ISD70 condition)” value was 0.475. “CGGCCTCGGAAGCTCT (antisense; LNA-modified, pattern not given here) [MB21D1-168 LNA V1]” was tested, and the “cGAS 100 nM (averaged IP-10 level relative to ISD70 condition)” value was 0.617. In the case of “CGTATTATAGCCGATT (antisense; LNA-modified, pattern not given here) [NC1 LNA PS 3-10-3]”, the “cGAS 100 nM (averaged IP-10 level relative to ISD70 condition)” value is reported as 0.443. For “CTGCAGCTTCCTTGTC (antisense; LNA-modified, pattern not given here) [CTNN2B-2136 LNA V1]”, the “cGAS 100 nM (averaged IP-10 level relative to ISD70 condition)” value was 0.613. In the case of “CTTCGTGGGGTCCTTT (antisense; LNA-modified, pattern not given here) [HPRT LNA-662 V1]”, the “cGAS 100 nM (averaged IP-10 level relative to ISD70 condition)” value is reported as 0.556. With “CTTGAAGCATCGTATC (antisense; LNA-modified, pattern not given here) [CTNN2B-3648 LNA KL]” the “cGAS 100 nM (averaged IP-10 level relative to ISD70 condition)” value was 0.373. In the case of “CTTGGCTTCGTGGAGC (antisense; LNA-modified, pattern not given here) [MB21D1-520 LNA V1]”, the “cGAS 100 nM (averaged IP-10 level relative to ISD70 condition)” value is reported as 0.666. “GAAAGGTTATGCAAGG (antisense; LNA-modified, pattern not given here) [CTNN2B-916 LNA KL]” was tested, and the “cGAS 100 nM (averaged IP-10 level relative to ISD70 condition)” value was 0.473. In the case of “GACTATACGCGCAATA (antisense; LNA-modified, pattern not given here) [NC5 LNA PS 3-10-3]”, the “cGAS 100 nM (averaged IP-10 level relative to ISD70 condition)” value is reported as 0.991. In the case of “GAGGTCTTGGCTTCGT (antisense; LNA-modified, pattern not given here) [MB21D1-525 LNA V1]”, the “cGAS 100 nM (averaged IP-10 level relative to ISD70 condition)” value is reported as 0.508. In the case of “GATGGCCTCCCATCTC (antisense; LNA-modified, pattern not given here) [HPRT LNA-331 V1]”, the “cGAS 100 nM (averaged IP-10 level relative to ISD70 condition)” value is reported as 0.632. “GCACACTTCGTACCCA (antisense; LNA-modified, pattern not given here) [CAMSAP1-4915 LNA V1]” was tested, and the “cGAS 100 nM (averaged IP-10 level relative to ISD70 condition)” value was 0.383. For “GCACTTCAGTCTGAGC (antisense; LNA-modified, pattern not given here) [MB21D1-719 LNA KL]”, the “cGAS 100 nM (averaged IP-10 level relative to ISD70 condition)” value was 0.797. In the case of “GGAGGTCTTGGCTTCG (antisense; LNA-modified, pattern not given here) [MB21D1-526 LNA V1]”, the “cGAS 100 nM (averaged IP-10 level relative to ISD70 condition)” value is reported as 1.061. In the case of “GGCTCGGCTTGCCTAC (antisense; LNA-modified, pattern not given here) [CAMSAP1-5594 LNA V1]”, the “cGAS 100 nM (averaged IP-10 level relative to ISD70 condition)” value is reported as 0.761. In the case of “GGTCATTACAATAGCT (antisense; LNA-modified, pattern not given here) [HPRT LNA-475 KL]”, the “cGAS 100 nM (averaged IP-10 level relative to ISD70 condition)” value is reported as 0.751. With “GGTCTTGGCTTCGTGG (antisense; LNA-modified, pattern not given here) [MB21D1-523 LNA V1]” the “cGAS 100 nM (averaged IP-10 level relative to ISD70 condition)” value was 0.648. With “GTCAAGGGCATATCCT (antisense; LNA-modified, pattern not given here) [HPRT LNA-732 KL]” the “cGAS 100 nM (averaged IP-10 level relative to ISD70 condition)” value was 0.636. In the case of “GTCCTTGCACGTGGCT (antisense; LNA-modified, pattern not given here) [EGFR-1015 LNA V1]”, the “cGAS 100 nM (averaged IP-10 level relative to ISD70 condition)” value is reported as 0.645. For “GTCTCTGGAGCTTCCT (antisense; LNA-modified, pattern not given here) [CAMSAP1-2456 LNA V1]”, the “cGAS 100 nM (averaged IP-10 level relative to ISD70 condition)” value was 0.627. With “GTCTTCATCGGCCCTG (antisense; LNA-modified, pattern not given here) [CAMSAP1-2113 LNA V1]” the “cGAS 100 nM (averaged IP-10 level relative to ISD70 condition)” value was 0.809. With “GTGATCTTGACATGCT (antisense; LNA-modified, pattern not given here) [EGFR-2790 LNA KL]” the “cGAS 100 nM (averaged IP-10 level relative to ISD70 condition)” value was 0.661. With “GTGATGGCCTCCCATC (antisense; LNA-modified, pattern not given here) [HPRT LNA-333 V1]” the “cGAS 100 nM (averaged IP-10 level relative to ISD70 condition)” value was 0.724. “TACTTTCCGAGGTGTC (antisense; LNA-modified, pattern not given here) [CAMSAP1-1739 LNA KL]” was tested, and the “cGAS 100 nM (averaged IP-10 level relative to ISD70 condition)” value was 0.638. With “TCCACAATCAAGACAT (antisense; LNA-modified, pattern not given here) [HPRT LNA-551 KL]” the “cGAS 100 nM (averaged IP-10 level relative to ISD70 condition)” value was 0.601. For “TCCATACCCAAGGCAT (antisense; LNA-modified, pattern not given here) [CTNN2B-2446 LNA V1]”, the “cGAS 100 nM (averaged IP-10 level relative to ISD70 condition)” value was 0.589. In the case of “TCCGCCCAAAGGGAAC (antisense; LNA-modified, pattern not given here) [HPRT LNA-1027 KL]”, the “cGAS 100 nM (averaged IP-10 level relative to ISD70 condition)” value is reported as 0.860. In the case of “TCCTTGCACGTGGCTT (antisense; LNA-modified, pattern not given here) [EGFR-1014 LNA V1]”, the “cGAS 100 nM (averaged IP-10 level relative to ISD70 condition)” value is reported as 0.591. “TCGTGGGGTCCTTTTC (antisense; LNA-modified, pattern not given here) [HPRT LNA-660 V1]” was tested, and the “cGAS 100 nM (averaged IP-10 level relative to ISD70 condition)” value was 0.729. In the case of “TCTTCATCGGCCCTGC (antisense; LNA-modified, pattern not given here) [CAMSAP1-2112 LNA V1]”, the “cGAS 100 nM (averaged IP-10 level relative to ISD70 condition)” value is reported as 0.548. For “TCTTGGCTTCGTGGAG (antisense; LNA-modified, pattern not given here) [MB21D1-521 LNA V1]”, the “cGAS 100 nM (averaged IP-10 level relative to ISD70 condition)” value was 0.693. For “TGACAAAGATTCACTG (antisense; LNA-modified, pattern not given here) [HPRT LNA-1353 KL]”, the “cGAS 100 nM (averaged IP-10 level relative to ISD70 condition)” value was 0.887. With “TGACTGTCTTGAGGGT (antisense; LNA-modified, pattern not given here) [MB21D1-1483 LNA KL]” the “cGAS 100 nM (averaged IP-10 level relative to ISD70 condition)” value was 0.747. “TGGTCCACAACCCCTT (antisense; LNA-modified, pattern not given here) [MB21D1-697 LNA V1]” was tested, and the “cGAS 100 nM (averaged IP-10 level relative to ISD70 condition)” value was 0.935. For “TGGTGGCCACCCATCT (antisense; LNA-modified, pattern not given here) [CTNN2B-2479 LNA V1]”, the “cGAS 100 nM (averaged IP-10 level relative to ISD70 condition)” value was 0.830. With “TGTCCTTGCACGTGGC (antisense; LNA-modified, pattern not given here) [EGFR-1016 LNA V1]” the “cGAS 100 nM (averaged IP-10 level relative to ISD70 condition)” value was 0.678. With “TGTCTGGAAGCTTCCT (antisense; LNA-modified, pattern not given here) [CTNN2B-808 LNA V1]” the “cGAS 100 nM (averaged IP-10 level relative to ISD70 condition)” value was 0.617. “TTCAGGCGCTGCCTTG (antisense; LNA-modified, pattern not given here) [CAMSAP1-2709 LNA V1]” was tested, and the “cGAS 100 nM (averaged IP-10 level relative to ISD70 condition)” value was 0.709.

Same assay, conditions: THP-1; 100 nM ASO overnight, then ISD70 2.5 μg/ml 7-8 h; percentage of ISD70 only
“mA*mA*mA*mG*mC*A*G*T*C*T*C*C*A*T*G*mU*mC*mC*mC*mA (mA*mA*mA*mG*mC*dA*dG*dT*dC*dT*dC*dC*dA*dT*dG*mU*mC*mC*mC*mA; antisense) [[CDKN2B-AS1]2237]” was tested, and the “cGAS-100 nM: averaged IP-10 levels relative to ISD70” value was 70.95%. With “mA*mA*mG*mC*mA*G*T*C*T*C*C*A*T*G*T*mC*mC*mC*mA*mG (mA*mA*mG*mC*mA*dG*dT*dC*dT*dC*dC*dA*dT*dG*dT*mC*mC*mC*mA*mG; antisense) [[CDKN2B-AS1]2236]” the “cGAS-100 nM: averaged IP-10 levels relative to ISD70” value was 107.34%. “mA*mG*mC*mA*mG*T*C*T*C*C*A*T*G*T*C*mC*mC*mA*mG*mG (AGCAGTCTCCATGTCCCAGG; antisense; sugars from the 5' end m5 d10 m5, all phosphorothioate, methylation of C not given here) [[CDKN2B-AS1]2235]” was tested, and the “cGAS-100 nM: averaged IP-10 levels relative to ISD70” value was 28.75%. With “mA*mG*mU*mC*mU*C*C*A*T*G*T*C*C*C*A*mG*mG*mC*mC*mU (mA*mG*mU*mC*mU*dC*dC*dA*dT*dG*dT*dC*dC*dC*dA*mG*mG*mC*mC*mU; antisense) [[CDKN2B-AS1]2232]” the “cGAS-100 nM: averaged IP-10 levels relative to ISD70” value was 88.13%. “mA*mG*mU*mG*mG*C*A*C*A*T*A*C*C*A*C*mA*mC*mC*mC*mU (AGUGGCACATACCACACCCU; antisense; sugars from the 5' end m5 d10 m5, all phosphorothioate, methylation of C not given here) [[CDKN2B-AS1]495]” was tested, and the “cGAS-100 nM: averaged IP-10 levels relative to ISD70” value was 59.69%.

Same assay, conditions: THP-1; 300 nM LNA or 200 nM MOE ASO ~30 min; ISD70 overnight (FIG. 21, 23)
For “CGCTTTTCTGTCTGGT (antisense; LNA-modified, pattern not given here) [CTNN2B-311 LNA KL]”, the “inhibition of cGAS in THP-1, LNA and MOE ASO validation (in words)” value was “potently inhibited signalling”. For “CTTGAAGCATCGTATC (antisense; LNA-modified, pattern not given here) [CTNN2B-3648 LNA KL]”, the “inhibition of cGAS in THP-1, LNA and MOE ASO validation (in words)” value was “failed to significantly inhibit cGAS”.
